# Structures can show the parent of a compound that is named as a salt.
# Target: T1, human GPR40 (Homo sapiens, UniProt O14842)
# T1 construct: expressed in transfected cells; host or cells: CHO(dhfr-) cells: line CHO-hGPR40 No. 104 of WO2004/041266, with a stably expressed NFAT-TA-Luc reporter (CHO(dhfr-)/GPR40-NFAT-Luc)
# Assay: GPR40 antagonist activity with changes in intracellular calcium concentration as index (NFAT-luciferase reporter, CHO(dhfr-)/GPR40-NFAT-Luc cells)
# Assay type: cell-based
# Settings: CHO cell line expressing human GPR40, NFAT-Luc reporter; GPR40 agonist 3-(4-((6-benzyloxy-2',6'-dimethyl-biphenyl-3-yl)methoxy)phenyl)propanoic acid 40 nM; 4 hr culture; 0.1% fatty acid-free BSA
# Excerpt: Evaluation of GPR40 antagonist activity with changes in intracellular calcium concentration as index
# An assay system of GPR40 antagonist was established as follows. In this assay system, as the GPR40 agonist, 3-(4-((6-benzyloxy-2′,6′-dimethyl-biphenyl-3-yl)methoxy)phenyl)propanoic acid (compound described in Example 340 of WO2004/041266) was used.
# First, NFAT-TA was cut out from pNFAT-TA-Luc (manufactured by BD Bioscience Clontech) with HindIII and NheI, the recovered fragment was inserted into pGL3 basic neo digested with HindIII and NheI to give plasmid:pGL3 basic neo NFAT-TA-Luc.
# This plasmid was used for “the CHO cell line (CHO-hGPR40 No. 104), which was made to express human GPR40” described in WO2004/041266, and a cell line CHO(dhfr-)/GPR40-NFAT-Luc, wherein a reporter gene was stably expressed by a method known per se, was prepared.
# This cell line was diluted with a medium (nucleic acid-free MEM (Minimum Essential Medium)—α medium added with dialyzed FBS (Fetal Bovine Serum) to a final concentration of 10%) in such a manner that 2×10^4 cells/100 μl would be contained, dispensed to a white walled 96 well plate (manufactured by Coster) by 100 μl per well, and cultured overnight in a CO2 incubator. Then the medium was removed by suction from the 96 well plate, and a 10 mM test compound-dimethyl sulfoxide (manufactured by Wako Pure Chemical Industries, Ltd.) solution diluted with a medium (nucleic acid-free MEM—α medium added with bovine serum albumin (BSA) free of fatty acid to a final concentration of 0.1%) to each concentration was added by 50 μl per well. Further, 3-(4-((6-benzyloxy-2′,6′-dimethyl-biphenyl-3-yl)methoxy)phenyl)propanoic acid diluted with a medium (nucleic acid-free MEM-α (medium added with BSA free of fatty acid to a final concentration of 0.1%) to a final concentration of 40 nM was added to the 96 well plate by 50 μl per well.
# After culture in a CO2 incubator for 4 hr, the culture medium was removed from the 96 well plate. Then, PicaGene (manufactured by TOYO INK MFG. CO., LTD.) was added to the 96 well plate, and the luciferase activity was determined using PerkinElmer ARVO (trade name, manufactured by PerkinElmer), based on which changes in the intracellular calcium concentration were evaluated. After assay of luciferase activity, nonlinear regression analysis was performed using PRISM 3 (trade name, manufactured by GraphPad) and IC50 value was calculated with changes in the intracellular calcium concentration as an index.
# In the same manner as in Experimental Example 1, the IC50 value of the compound of the present invention was calculated.
# T1 sequence (O14842 whole entry): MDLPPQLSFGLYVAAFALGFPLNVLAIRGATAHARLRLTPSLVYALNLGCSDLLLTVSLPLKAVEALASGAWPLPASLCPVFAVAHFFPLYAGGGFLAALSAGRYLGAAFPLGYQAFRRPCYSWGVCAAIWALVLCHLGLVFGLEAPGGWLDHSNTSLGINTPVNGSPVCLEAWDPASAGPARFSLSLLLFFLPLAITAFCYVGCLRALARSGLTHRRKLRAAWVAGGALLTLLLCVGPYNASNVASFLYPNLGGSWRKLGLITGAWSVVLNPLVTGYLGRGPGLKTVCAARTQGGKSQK
row,IC50,SMILES
1,< 100 nM,"CCOc1ccc(-n2c(SCc3ccc(Cl)cc3)nc3cc(Cl)ccc32)cc1 [Example 65, 5-Chloro-2-[(4-chlorobenzyl)thio]-1-(4-ethoxyphenyl)-1H-benzimidazole hydrochloride]"
2,< 100 nM,"CCOc1ccc(-n2c(NC(C)c3ccc(Br)cc3)nc3ccc(Cl)cc32)cc1 (stereo not shown) [Example 71, N-[1-(4-Bromophenyl)ethyl]-6-chloro-1-(4-ethoxyphenyl)-1H-benzimidazol-2-amine]"
3,< 100 nM,"CCOc1ccc(-n2c(NCc3ccc(Br)cc3)nc3ccc(Cl)cc32)cc1 [Example 50, N-(4-Bromobenzyl)-6-chloro-1-(4-ethoxyphenyl)-1H-benzimidazol-2-amine]"
4,< 100 nM,"FC(F)(F)COc1ccc(-n2c(SCc3ccc(Cl)cc3)nc3cc(Cl)ccc32)cc1 [Example 67, 5-chloro-2-[(4-chlorobenzyl)thio]-1-[4-(2,2,2-trifluoroethoxy)phenyl]-1H-benzimidazole]"
5,< 100 nM,"CCOc1ccc(-n2c(NCc3ccc(C(C)(C)C)cc3)nc3ccc(Cl)cc32)cc1 [Example 51, N-(4-tert-Butylbenzyl)-6-chloro-1-(4-ethoxyphenyl)-1H-benzimidazol-2-amine]"
6,< 100 nM,"CC(C)Oc1ccc(-n2c(SCc3ccc(Cl)cc3)nc3cc(Cl)ccc32)cc1 [Example 46, 5-Chloro-2-[(4-chlorobenzyl)thio]-1-(4-isopropoxyphenyl)-1H-benzimidazole]"

row,SMILES,IC50
1,"CCCCOc1ccc(-n2c(NCc3ccc(C(C)(C)C)cc3)nc3ccc(Cl)cc32)cc1 [Example 75, 1-(4-Butoxyphenyl)-N-(4-tert-butylbenzyl)-6-chloro-1H-benzimidazol-2-amine]",< 100 nM
2,"CCCCOc1ccc(-n2c(NCc3ccc(C(C)(C)C)cc3)nc3cc(Cl)c(Cl)cc32)cc1 [Example 99, 1-(4-butoxyphenyl)-N-(4-tert-butylbenzyl)-5,6-dichloro-1H-benzimidazol-2-amine]",< 100 nM

# Test system: not given
# Assay: not given
# Settings: not given
row,melting point,SMILES
1,122 to 123 °C,"CCCOc1ccc(-n2c(NCc3ccc(Cl)cc3)nc3cc(Cl)ccc32)cc1 [Example 85, 5-Chloro-N-(4-chlorobenzyl)-1-(4-propoxyphenyl)-1H-benzimidazol-2-amine]"
2,94 to 95 °C,"COc1ccc(-n2c(SCc3ccccc3Cl)nc3ccc(Cl)cc32)cc1 [Example 3, 6-Chloro-2-[(2-chlorobenzyl)thio]-1-(4-methoxyphenyl)-1H-benzimidazole]"
3,80 to 86 °C,COc1ccc(-n2c(SCc3ccc(Cl)cc3)nc3ccc(Cl)cc32)cn1.Cl
4,119 to 120 °C,"COc1ccc(CSc2nc3ccc(Cl)cc3n2-c2ccc(OC)cc2)cc1 [Example 6, 6-Chloro-2-[(4-methoxybenzyl)thio]-1-(4-methoxyphenyl)-1H-benzimidazole]"
5,96 to 100 °C,CCOc1ccc(-n2c(SCc3ccc(C(C)C)cc3)nc3ccc(Cl)cc32)cc1.Cl
6,128 to 129 °C,"CS(=O)(=O)Oc1ccc(-n2c(SCc3ccc(Cl)cc3)nc3ccc(Cl)cc32)cc1 [Example 25, 4-{6-Chloro-2-[(4-chlorobenzyl)thio]-1H-benzimidazol-1-yl}phenyl methanesulfonate]"
7,100 to 101 °C,"COc1cccc(-n2c(SCc3ccc(Cl)cc3)nc3ccc(Cl)cc32)c1 [Example 17, 6-Chloro-2-[(4-chlorobenzyl)thio]-1-(3-methoxyphenyl)-1H-benzimidazole]"
8,116 to 117 °C,"COc1ccc(-n2c(SCc3ccc(Cl)cc3)nc3ccc(Cl)cc32)cc1 [Example 1, 6-Chloro-2-[(4-chlorobenzyl)thio]-1-(4-methoxyphenyl)-1H-benzimidazole]"
9,185 to 186 °C,"O=C(NCCO)c1ccc(-n2c(SCc3ccc(Cl)cc3)nc3ccc(Cl)cc32)cc1 [Example 43, 4-{6-Chloro-2-[(4-chlorobenzyl)thio]-1H-benzimidazol-1-yl}-N-(2-hydroxyethyl)benzamide]"
10,162 to 163 °C,"CC(C)C(=O)c1ccc(-n2c(SCc3ccc(Cl)cc3)nc3ccc(Cl)cc32)cc1 [Example 41, 1-(4-{6-Chloro-2-[(4-chlorobenzyl)thio]-1H-benzimidazol-1-yl}phenyl)-2-methylpropan-1-one]"
11,102 to 103 °C,"CC(C)Oc1ccc(-n2c(SCc3ccc(Cl)cc3)nc3ccc(Cl)cc32)cc1 [Example 23, 6-Chloro-2-[(4-chlorobenzyl)thio]-1-(4-isopropoxyphenyl)-1H-benzimidazole]"
12,93 to 94 °C,"COc1ccc(-n2c(SCc3cccc(OC)c3)nc3ccc(Cl)cc32)cc1 [Example 5, 6-Chloro-2-[(3-methoxybenzyl)thio]-1-(4-methoxyphenyl)-1H-benzimidazole]"
13,150 to 151 °C,"FC(F)(F)COc1ccc(-n2c(NCc3ccc(Cl)cc3)nc3ccc(Cl)cc32)cc1 [Example 79, 6-Chloro-N-(4-chlorobenzyl)-1-[4-(2,2,2-trifluoroethoxy)phenyl]-1H-benzimidazol-2-amine]"
14,138 to 139 °C,"FC(F)(F)COc1ccc(-n2c(NCc3ccc(Cl)cc3)nc3cc(Cl)c(Cl)cc32)cc1 [Example 104, 5,6-Dichloro-N-(4-chlorobenzyl)-1-[4-(2,2,2-trifluoroethoxy)phenyl]-1H-benzimidazol-2-amine]"
15,130 to 131 °C,"CCOCOc1ccc(-n2c(SCc3ccc(Cl)cc3)nc3ccc(Cl)cc32)cc1 [Example 31, 6-Chloro-2-[(4-chlorobenzyl)thio]-1-[4-(ethoxymethoxy)phenyl]-1H-benzimidazole]"
16,111 to 112 °C,"FC(F)(F)Oc1ccc(-n2c(SCc3ccc(Cl)cc3)nc3cc(Cl)c(Cl)cc32)cc1 [Example 142, 5,6-Dichloro-2-[(4-chlorobenzyl)thio]-1-[4-(trifluoromethoxy)phenyl]-1H-benzimidazole]"
17,95 to 96 °C,"COCOc1ccc(-n2c(SCc3ccccn3)nc3ccc(Cl)cc32)cc1 [Example 55, 6-Chloro-1-[4-(methoxymethoxy)phenyl]-2-[(pyridin-2-ylmethyl)thio]-1H-benzimidazole]"
18,137 to 138 °C,"Clc1ccc(CSc2nc3ccc(Cl)cc3n2-c2ccc(OCC3CC3)cc2)cc1 [Example 11, 6-Chloro-2-[(4-chlorobenzyl)thio]-1-[4-(cyclopropylmethoxy)phenyl]-1H-benzimidazole]"
19,69 to 76 °C,COc1ccc(-n2c(SCc3ccc(C(F)(F)F)nc3)nc3ccc(Cl)cc32)cn1.Cl
20,176 to 177 °C,"CCC(=O)c1ccc(-n2c(SCc3ccc(Cl)cc3)nc3ccc(Cl)cc32)cc1 [Example 40, 1-(4-{6-Chloro-2-[(4-chlorobenzyl)thio]-1H-benzimidazol-1-yl}phenyl)propan-1-one]"
21,133 to 134 °C,"CCOC(=O)c1ccc2c(c1)nc(SCc1ccc(Cl)cc1)n2-c1ccc(OCC)cc1 [Example 107, Ethyl 2-[(4-chlorobenzyl)thio]-1-(4-ethoxyphenyl)-1H-benzimidazole-5-carboxylate]"
22,88 to 89 °C,"FC(F)(F)Oc1ccc(-n2c(SCc3ccc(Cl)cc3)nc3ccc(Cl)cc32)cc1 [Example 141, 6-Chloro-2-[(4-chlorobenzyl)thio]-1-[4-(trifluoromethoxy)phenyl]-1H-benzimidazole]"
23,118 to 119 °C,"CCOC(=O)N1CCC(n2c(SCc3ccc(Cl)cc3)nc3ccc(Cl)cc32)CC1 [Example 58, Ethyl 4-{6-chloro-2-[(4-chlorobenzyl)thio]-1H-benzimidazol-1-yl}piperidine-1-carboxylate]"
24,143 to 144 °C,"Clc1ccc(CSc2nc3ccc(Cl)cc3n2-c2ccc(C3=NCCO3)cc2)cc1 [Example 124, 6-Chloro-2-[(4-chlorobenzyl)thio]-1-[4-(4,5-dihydro-1,3-oxazol-2-yl)phenyl]-1H-benzimidazole]"

row,SMILES,melting point
1,"CCCCOc1ccc(-n2c(NCc3ccc(Br)cc3)nc3ccc(Cl)cc32)cc1 [Example 77, N-(4-Bromobenzyl)-1-(4-butoxyphenyl)-6-chloro-1H-benzimidazol-2-amine]",123 to 124 °C
2,"CCCCOc1ccc(-n2c(NCc3ccc(Br)cc3)nc3cc(Cl)ccc32)cc1 [Example 88, N-(4-Bromobenzyl)-1-(4-butoxyphenyl)-5-chloro-1H-benzimidazol-2-amine]",95 to 96 °C
